Laboratory results reported in patent US20090048339A1, “COMPOSITIONS OF CIS-9, TRANS-11 CONJUGATED LINOLEIC ACID AND VACCENIC ACID AND USES THEREOF” (FONTERRA CORPORATE RESEARCH AND DEVELOPMENT LIMITE, priority 2005, published 2009).

Legend:
[1] = test system: allergen-induced accumulation of leukocytes into the lung; assay: OVA-induced asthma mouse model: bronchoalveolar lavage (BAL) total and differential cell counts; assay type: in vivo, C57BL/6 mice; conditions: for increase of total BAL cell counts vs control diet: single-supplement diets (0.14% cis-9, trans-11 CLA or 0.21% VA), BAL 6 days after intranasal OVA challenge, vs AIN93G control; for increase of accumulation of eosinophils in BAL vs control diet: single-supplement diets, BAL 6 days after OVA challenge, not significant; for effect on leukocyte infiltration into the airway lumen: summary statement
Description: (§1) Eight to nine week old male and female C57BL/6 mice (University of Auckland, New Zealand) were kept on an ovalbumin (OVA)-free normal mouse chow diet from weaning up until they were assigned to a particular diet (control or experimental diet). Each diet group (n=6) contained an equal number of male and female mice. Throughout the study period mice were kept in an air-conditioned room with controlled humidity, temperature, and a 12h light:dark cycle.
(§2) Healthy control mice were maintained on an unmodified AIN-93G diet. Soybean oil (which contains no CLA) was the dietary fat source in the AIN-93G diet. The final fat content of all treatment diets used in the Examples was maintained at the same level as the fat content of the control AIN-93G diet by reducing the soybean oil content of the treatment or control diets as required. Fresh diet was provided biweekly, and mice had free access to food and water throughout the study.
Bronchoalveolar lavage was performed immediately after euthanasia by flushing 1 ml of PBS containing 1% heat inactivated fetal calf serum (lavage buffer) thrice through the lung and airways of mice via the cannulated trachea. The recovered BAL was pooled for each animal, centrifuged at 1,500 rpm at 4° C., and the supernatant stored at −80° C. The cell pellets were resuspended in 1 ml of lavage buffer, and total cell numbers were counted using a hemocytometer. BAL cells were centrifuged onto poly-L-lysine-coated glass slides using a cytospin, and stained with Diff-Quik stain (Dade Behring Inc. USA). Differential cellular counts were made by counting ≧300 cells under light microscopy (Nikon E200 microscope), using standard morphological criteria.
Data are expressed as the mean±SEM, and statistical significance was determined by the Student's t test. A value of P<0.05 was taken as significant.

[2] = test system: OVA-induced asthma; assay: OVA-induced asthma mouse model: lung histopathology score and mucus index (alcian blue-PAS sections); assay type: in vivo, C57BL/6 mice; conditions: summary statement; for effect on lung pathology: fed individually
Description: as §1, §2

[3] = test system: IL-5; assay: IL-5 in BAL fluid by ELISA after allergen challenge; assay type: in vivo, C57BL/6 mice; conditions: vs AIN-93G control
Text: The levels of IL-5 and eotaxin in the BAL fluid were quantitated by ELISA using a Quantikine mouse IL-5 ELISA kit and a mouse eotaxin Quantikine ELISA kit (R&D Systems, MN), respectively, according to the manufacturers' instructions. The detection limits were 3 pg/ml for eotaxin and 7 pg/ml for IL-5.
IL-5 and eotaxin produced by a variety of different cell types in the sensitized lung play key roles in asthma by controlling the development and release of eosinophils from the bone marrow, and their accumulation, activation and survival in the lung (Walsh et al., 2005; Shinagawa et al., 2003). Challenge with allergen led to marked increases in the levels of IL-5 and eotaxin (data not shown) in the BAL fluid of control mice fed the AIN93G diet (FIG. 3).

[4] = mice, two week feeding period; cited from earlier work
[5] = humans; cited from earlier work
[6] = Blood triglyceride levels (Accutrend GCT meter); conditions: diet with 0.21% VA; P<0.05; data not shown

For `CCCCCC/C=C/CCCCCCCCCC(=O)O` [VA, trans 11-octadecenoic acid], the “increase of total BAL cell counts vs control diet” value [1] was 94%, the “increase of accumulation of eosinophils in BAL vs control diet” value [1] was 270% and the “effect on leukocyte infiltration into the airway lumen” value [1] was “increased”. The “effect on lung pathology” value [2] was “no significant effect”, the “reduction of IL-5 in BAL fluid vs control diet” value [3] was 11% and the “VA consumed retained as cis-9, trans-11 CLA in its triglyceride form” value [4] was roughly 12%. For the same molecule, the “average conversion rate of VA to cis-9, trans-11 CLA” value [5] was roughly 19% and the “increase of blood triglyceride levels” value [6] was 59%.
For `CCCCCC/C=C/C=C\CCCCCCCC(=O)O` [cis-9, trans-11 CLA, cis-9, trans-11 conjugated linoleic acid], the “increase in monocytes/macrophages in BAL vs control diet” value ([1]; 0.14% cis-9, trans-11 CLA diet, P=0.05) was 35%, the “increase of total BAL cell counts vs control diet” value [1] was 43% and the “increase of accumulation of eosinophils in BAL vs control diet” value [1] was 69%. The “effect on leukocyte infiltration into the airway lumen” value [1] was “increased”, the “effect on lung pathology” value [2] was “no significant effect” and the “inhibition of mucus hypersecretion (significance)” value [2] was “significance was not achieved”. The “reduction of IL-5 in BAL fluid vs control diet” value [3] was 21%.
